Assays:
[1] = system: Green Peach Aphid (Myzus persicae); test: Green peach aphid root uptake assay on pepper; format: in vivo; conditions: 3 days after infestation
Description: These assays were designed to evaluate the possibility of using the compounds identified in the foregoing examples for applications such as nursing trays, transplanting water and/or irrigation. Systemic activity against green peach aphid was evaluated in a root uptake assay. Bell peppers (Capsicum annum var. California Wonder) were used as test plants seeded and grown in rock wool plugs. Plants were grown to expanding 1st true leaf stage. The rock wool plugs containing individual plants were placed in 1-ounce cups and surrounded with white clean sand. Five plants were used for each treatment. A volume of 5 mL of the test solutions was applied to each cup (each plant). After insecticide application, the seedlings were infested with green peach aphids and held in a growth chamber (25° C., 50% RH, 16 hr light: 8 hr dark). Number of live aphids on each plant was counted at 3 days after infestation. Calculations for % Control were based on a corrected basis compared to the populations on the reference plants.
Corrected % Control=100*(X−Y)/X • where X=No. of live aphids on reference plants • Y=No. of live aphids on treated plants Assay 1: Compound (3) was tested at a dose range of 5-500 μg/plant. A stock solution of 1000 ppm (1 mg/mL) was made by dissolving technical test compound in acetone:ethanol (90:10). The highest test concentration (100 ppm, 500 μg/5 ml) was prepared by diluting 2.5 mL stock solution with 22.5 mL DI water. The lower test concentrations (25 mL) were similarly prepared by diluting aliquots of the stock solution with DI water. Reference plants received DI water only.
Assay 2: Compound (2) was tested at a dose range of 0.08-50 μg/plant. A stock solution of 1000 ppm was made by dissolving 2 mg of technical test compound in 2 mL acetone. The highest test concentration (10 ppm, 50 μg/5 ml) was prepared by diluting 0.32 mL stock solution with 1.6 mL acetone and 30.08 mL DI water, containing 6% acetone. Lower test concentrations were prepared by sequentially diluting 6.5 mL higher concentration (start from the 10 ppm test solution) with 26.0 ml acetone: DI water (6:94). The solvent/diluent system (6% acetone) was used as reference.

[2] = system: sweet potato whitefly, Bemisia tabaci; conditions: more recently-collected strains of whitefly, late 1990s; cited from earlier work
[3] = system: Cotton Aphid (Aphis gossypii); test: Cotton aphid seed coating assay on squash; format: in vivo; conditions: 3 mg/seed, 10% SC formulation, counted 3 days after infestation
Description: Selected compounds of the invention were tested in assays designed to evaluate its systemic activity for control of cotton aphid through seed-coating prior to planting. The crop used in these assays was a hybrid squash (var. Pic-N-Pic). Test compound was formulated in a 10% SC formulation. Ten squash seeds were used for each treatment. Seeds were placed on waxed paper and a pipette was used to apply the original or diluted formulations to each seed. The air-dried, treated seeds were individually planted into 3 inch pots containing metro mix. The pots were placed on a California cart and moved into the greenhouse for sub watering only. At the specified number of days after planting, the plants were infested with approximately 40 wingless aphids. The infested plants were kept in an environmental holding room (23° C., 40% RH, 16 hr light: 8 hr dark) for three days before the number of live aphids was counted under a microscope. Calculations for % Control were based on a corrected basis compared to the populations on the reference plants germinated from seeds treated with the formulation blank.
Corrected % Control=100*(X−Y)/X • where X=No. of live aphids on reference plants • Y=No. of live aphids on treated plants Assay 1. Compounds (1) and (2) were tested at 3 mg/seed. The original 10% SC formulation was used. One half (15 ul) of the sample was spread onto one side of a seed. Once dried (approximately 1 hr), the seed was flipped over and the 2nd half of sample was spread over the other side. Fourteen and 25 days after planting, aphid infestations were conducted on the 1st and 2nd true leaves, respectively.
Assay 2. Compound (2) was tested at 0.1 and 1 mg/seed. For the 1 mg/seed treatment, the original 10% formulation was used. For the 0.1 mg/seed treatment, the 10% formulation were diluted 10× with DI water before application. One half (5 ul) of the sample was spread onto one side of a seed. Once dried (approximately 1 hr), the seed was flipped over and the 2nd half of sample was spread over the other side. Thirteen days after planting, the 1st leaf was infested.

## N#CN=S1(=O)CCCC1Cc1ccc(Cl)nc1 (stereo not drawn) [Compound 3, 2-[(6-chloropyridin-3-yl)methyl]-1-oxidotetrahydro-1H-1-λ^4-thien-1-ylidenecyanamide]
[1]; 5 μg/plant
  % Control, root uptake systemic: 10%
[1]; 50 μg/plant
  % Control, root uptake systemic: 88%
[1]; 500 μg/plant
  % Control, root uptake systemic: 100%

## O=[N+]([O-])NC1=NCCN1Cc1ccc(Cl)nc1 [imidacloprid, Imidacloprid]
[2]
  resistance: more than 100 fold

## CS(=O)(Cc1ccc(Cl)nc1)=NC#N (stereo not drawn) [Compound 1, [(6-Chloropyridin-3-yl)methyl](methyl)oxido-λ^4-sulfanylidenecyanamide]
[3]
  % Control, seed coating systemic 1st leaf, 14 days after planting: 100%
  % Control, seed coating systemic 2nd leaf, 25 days after planting: 99.6%

— patent US20080108665A1, “Use of N-substituted sulfoximines for control of invertebrate pests” (priority 2006, published 2008)
